Test results taken from patent US20170224679A1, “Use of CXCR2 Antagonists For The Prevention and/or Treatment of Chemotherapy Induced Peripheral Neuropathy (CIPN)” (GlaxoSmithKline Intellectual Property Development Limited, priority 2014, published 2017).

How the values were obtained:
Assay type in all cases: cell-based
CXCR2 receptor [1] = target: T1, CXCR2 receptor (Homo sapiens, UniProt P25025); test: GPCR Arrestin Assay (DiscoveRX PathHunter), CXCR2; set-up: host or cells: PathHunter CHO cell lines
T1 sequence (P25025 1-360): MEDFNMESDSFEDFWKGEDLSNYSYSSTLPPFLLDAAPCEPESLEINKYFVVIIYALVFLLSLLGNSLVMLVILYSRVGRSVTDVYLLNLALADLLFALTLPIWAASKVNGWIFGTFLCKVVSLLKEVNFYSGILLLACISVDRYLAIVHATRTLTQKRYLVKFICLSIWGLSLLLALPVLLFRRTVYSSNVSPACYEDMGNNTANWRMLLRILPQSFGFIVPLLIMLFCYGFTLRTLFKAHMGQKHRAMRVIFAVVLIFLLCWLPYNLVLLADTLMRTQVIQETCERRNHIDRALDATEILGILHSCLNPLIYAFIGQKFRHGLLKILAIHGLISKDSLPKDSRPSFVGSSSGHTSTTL
Experimental: (§1) Certain compounds of the invention were also tested by DiscoveRX Corporation (42501 Albrae Street, Fremont, Calif. 94538, United States) in their GPCR Arrestin Assay to determine their activity against a panel of receptors including CXCR2 and CXCR1. PathHunter CHO cell lines were expanded from freezer stocks according to standard procedures. Cells were seeded in a total volume of 20 μL into white walled, 384-well microplates and incubated at 37° C. for the appropriate time prior to testing. The cells were pre-incubated with antagonist followed by agonist challenge at the EC80 concentration. Intermediate dilution of sample stocks was performed to generate 5× sample in assay buffer. 5 μL of 5× sample was added to cells and incubated at 37° C. or room temperature for 30 minutes. […] Assay signal was generated through a single addition of 12.5 or 15 μL (50% v/v) of PathHunter Detection reagent cocktail, followed by one hour incubation at room temperature. Microplates were read following signal generation with a PerkinElmer Envision™ instrument for chemiluminescent signal detection. Compound activity was analyzed using CBIS data analysis suite (ChemInnovation, Calif.).

CXCR1 receptor = target: T2, CXCR1 receptor (Homo sapiens, UniProt P25024); test: GPCR Arrestin Assay (DiscoveRX PathHunter), CXCR1; set-up: host or cells: PathHunter CHO cell lines; settings: PathHunter CHO cells, agonist at EC80; read-out: pIC50 against the CXCR1 receptor (converted)
T2 sequence (P25024 1-350): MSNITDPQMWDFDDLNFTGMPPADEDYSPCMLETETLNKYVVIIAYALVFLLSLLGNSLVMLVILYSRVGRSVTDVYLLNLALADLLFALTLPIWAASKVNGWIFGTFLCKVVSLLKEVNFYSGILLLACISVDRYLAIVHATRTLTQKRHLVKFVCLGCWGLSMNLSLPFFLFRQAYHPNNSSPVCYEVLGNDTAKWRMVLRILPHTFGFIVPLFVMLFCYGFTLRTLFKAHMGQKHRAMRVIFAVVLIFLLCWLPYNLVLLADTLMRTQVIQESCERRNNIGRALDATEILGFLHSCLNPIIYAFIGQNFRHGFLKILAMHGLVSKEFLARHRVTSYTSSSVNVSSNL
Experimental: as §1

CXCR2 receptor [2] = target: T1, CXCR2 receptor; test: CXCR2 Tango assay; set-up: fused on or other part: TEV protease cleavage site and Gal4-VP16 transcription factor fused to the receptor (Invitrogen Tango construct); no part of the key; settings: Tango reporter gene, 80 nM hCXCL1; read-out: pIC50 against the CXCR2 receptor (converted)
Source text: The assay measures ligand-induced activation of the receptor CXCR2 in a stable cell line containing the recombinant human CXCR2 linked to a TEV protease site and a Gal4-VP16 transcription factor (Invitrogen). Ligand binding to the receptor results in the recruitment of arrestin proteins (tagged with protease) to the receptor and triggers the release of a tethered transcription factor. The transcription factor enters the nucleus and activates the transcription of the reporter gene. The ability of a compound to inhibit CXCR2 activation is indirectly assessed by measuring the reporter gene activity.
A vial of cryopreserved cells was removed from liquid nitrogen and rapidly thawed in a water bath at 37° C. with gentle agitation. The cell contents were collected and resuspended in Assay Medium at a density of ˜200,000 cells/ml. All test compounds were dissolved in DMSO at a concentration of 10 mM and then were serially diluted to generate a 10-point dose response curve into 384-well assay plate (Greiner 781090) using an Echo (Labcyte) concentration-response program (50 nl/well). The cell-free, un-stimulated and positive controls were loaded with 50 nl/well pure DMSO to ensure that the DMSO concentration was constant across the plate for all assays. Using Multi-drop Combi (Thermo) with standard cassette, 50 μl of Assay Medium was added to cell-free control wells in compound-containing assay plate; 50 μl of the cell suspension without hCXCL1 (a CXCR2 ligand) was added to un-stimulated control wells (10,000 cells per well); and 50 μl of the cell suspension with 80 nM hCXCL1 was added to the rest of wells of the assay plate (10,000 cells per well). The cells were incubated overnight at 37° C./5% CO2·10 μl of 6× substrate mixture (LiveBLAzer™-FRET B/G substrate (CCF4-AM) Cat #K1096 from Invitrogen, Inc.) was added to each well using Multi-drop Combi (Thermo) with small-tube cassette and the plate was incubated at room temperature for 2 h in the dark. The plate was then read on EnVision using one excitation channel (409 nm) and two emission channels (460 nm and 530 nm).
The blue/green emission ratio (460 nm/530 nm) was calculated for each well by dividing the background-subtracted Blue emission values by the background-subtracted Green emission values. The dose response curve was based on sigmoidal dose-response model. All ratio data was normalized based upon the maximum emission ratio of positive control (hCXCL1) and minimum emission ratio of negative control (DMSO) on each plate.

CXCR2 receptor [3] = target: T1, CXCR2 receptor; test: Human whole blood assay version ii) (CD11b, GROα stimulated); set-up: Assay d) measures the cellular functional activity to the native expressed human CXCR2 in whole blood; endogenous in cells; host or cells: human whole blood (neutrophils); settings: 33 nM GROα, neutrophil CD11b, read-out: pIC50 against the CXCR2 receptor (converted)
Experimental: Blood was withdrawn by venipuncture from consented adults and poured into a Sterilin tube containing an anti-coagulant Heparin (10 μL/mL of blood). All the test compounds were dissolved in DMSO to 4 mM and serial diluted across the plate, 1 in 3 to provide 10 point dose response curves. The compounds were then diluted 100 fold in -PBS [Phosphate buffered saline (without Calcium Chloride and Magnesium Chloride)] after which, 1 μL was dispensed in 96 U bottom Costar plates using an FX. This was done to reduce the final DMSO concentration to 0.25% and for compounds to be screened at 10 uM final assay concentration, after addition of blood.
10 μL of blood was transferred to the compound plate using a multi-channel pipette, gently tapped and incubated for 15 minutes, at 37° C. After 15 minutes, the stimulant GROα was diluted to 100 nM in 0.1% BSA (Albumin Bovine Serum)-PBS and 5 μL is dispensed across the whole plate for a final concentration of 33 nM. The plate was gently tapped and incubated further for 15 minutes at 37° C. […]
Samples were run on a Becton and Dickinson (BD)-Acurri C6 Flow Cytometer using a HyperCyt sampling apparatus (IntelliCyt) with a flow rate 2 μL/sec. CD11 b upregulation is monitored in neutrophils and identified using a combination of both side scatter and CD16 expression.

CC1=CCC[C@H]1NC(=O)Nc1ccc(Cl)c(S(=O)(=O)[C@@]2(C)CCOC2)c1O [Compound of Formula (J), 1-(4-chloro-2-hydroxy-3-(((S)-3-methyltetrahydrofuran-3-yl)sulfonyl)phenyl)-3-((R)-2-methylcyclopent-2-en-1-yl)urea]
selectivity for CXCR2 over CXCR1 (CXCR2 receptor [1]; GPCR Arrestin Assay e)): 730 fold
IC50 (CXCR2 receptor [1]; PathHunter CHO cells, agonist at EC80, read-out: pIC50 against the CXCR2 receptor (converted)): 0.00501 µM
IC50 (CXCR1 receptor): 3.98 µM
IC50 (CXCR2 receptor [2]): 0.001 µM
IC50 (CXCR2 receptor [3]): 0.0398 µM
